{"source": "patent US10376520B2", "about": "“Methods for the treatment of cardiovascular disorders” (Galapagos NV, priority 2015, dated 2019)", "format_in_all_cases": "in vivo, human", "key": {"RA patients [1]": {"tested_on": "RA patients", "assay": "Paraoxonase assay (PON1), Study 4", "details": "for PON1 level, 4 weeks CFB: 4 weeks change from baseline", "description": "Randomized double-blind, placebo-controlled add on study in subjects with active RA who have an inadequate response to MTX monotherapy, in combination with methotrexate, administered for 4 weeks in the treatment of subjects with active rheumatoid arthritis who have an inadequate response to methotrexate alone.\nCompound 1 (dosed as a [Compound 1:HCl:3H2O]) capsules administered orally in 30 mg, 75 mg, 150 mg, or 300 mg doses per day for 4 weeks.\nParaoxanases are involved, in particular PON1 have a role in preventing atherosclerosis.\nThe PON assay is performed according to published protocol by Mackness et al. (Mackness et al., 2003)."}, "RA patients [2]": {"tested_on": "RA patients", "assay": "CRP analysis (immunoturbidimetric assay), Study 2", "details": "50 mg q.d.", "description": "Double-blind, placebo-controlled, monotherapy study in subjects with moderately to severely active RA who have an inadequate response to methotrexate (MTX) (oral or parenteral).\nTwelve weeks of treatment with Compound 1 (dosed as a [Compound 1:HCl:3H2O]) at 50 mg, 100 mg, or 200 mg q.d.; or placebo. At Week 12, all subjects on placebo and the subjects on the 50 mg dose who have not achieved 20% improvement in swollen joint count (SJC66) and tender joint count (TJC68) will be assigned to 100 mg q.d. in a blinded fashion and will continue treatment until Week 24. Subjects in the other groups will maintain their randomized treatment until Week 24.\nThe determination of CRP is made using Immunoturbidimetric assay for the in vitro quantitative determination of CRP in human serum and plasma on Roche/Hitachi cobas c systems, wherein human CRP agglutinates with latex particles coated with monoclonal anti-CRP antibodies. The aggregates are determined turbidimetrically (Eda et al., 1998; Price et al., 1987).\nHuman serum and plasma samples [CRP] determination was done on a Roche/Hitachi Cobas c 301 c 501/502 system which automatically calculate the analyte concentration of each sample. Samples containing precipitates are centrifuged before performing the assay.\nThe Hommel-corrected p-value for the pairwise comparisons of each group with placebo is shown. […]"}, "[3]": {"tested_on": "Japanese and Caucasian healthy subjects", "assay": "LDL determination, Study 3 (healthy volunteers)", "details": "for [LDL] % Mean % variation vs baseline 10 days: 200 mg q.d.; for [LDL] levels: Study 3", "description": "Randomized, double-blind, placebo-controlled study for the assessment of safety, tolerability, pharmacokinetics, and pharmacodynamics, of multiple oral doses of Compound 1 (dosed as a [Compound 1:HCl:3H2O]) in Japanese and Caucasian healthy subjects.\nRandomized, double-blind, placebo-controlled, single center, sequential design study.\nCompound 1 (dosed as a [Compound 1:HCl:3H2O]) is administered for 10 days as oral film-coated tablet (25 and 100 mg and matching placebos). Placebo are provided as a matching tablet.\nThe study drug is ingested with 240 mL water after a standardized breakfast on Days 2-9. On PK days (Day 1 and Day 10) the study drug is administered in a fasted state (subjects will receive lunch 4 h after dosing on Day 1 and Day 10).\n10 Japanese subjects (6 active, 4 placebo) and 10 Caucasian subjects (6 active, 4 placebo) will receive once daily an oral dose of 200 mg Compound 1 (dosed as a [Compound 1:HCl:3H2O]) or matching placebo as two tablets of 100 mg or matching placebo for 10 days. For practical reasons, these subjects may be split over separate groups, each group consisting of an equal number of Japanese and Caucasian Compound 1 (dosed as a [Compound 1:HCl:3H2O]) treated subjects and Japanese and Caucasian placebo subjects.\nThe determination of [LDL]-cholesterol is made using an automated method taking advantage of the selective micellary solubilization of [LDL]-cholesterol by a nonionic detergent and the interaction of a sugar compound and lipoproteins (VLDL and chylomicrons).\nWhen a detergent is included in the enzymatic method for cholesterol determination (cholesterol esterase, cholesterol oxidase coupling reaction), the relative reactivities of cholesterol in the lipoprotein fractions increase in this order: [HDL]<chylomicrons <VLDL <[LDL]. In the presence of Mg^2+, a sugar compound markedly reduces the enzymatic reaction of the cholesterol measurement in VLDL and chylomicrons. The combination of a sugar compound with detergent enables the selective determination of [LDL]-cholesterol in serum. (Friedewald et al., 1972; Rifai et al., 1992)\nHomogeneous enzymatic colorimetric assay.\nIn the presence of peroxidase, the hydrogen peroxide generated reacts with 4-aminoantipyrine and Sodium N-(2-hydroxy-3-sulfopropyl)-3,5-dimethoxyaniline (HSDA) to form a purple-blue dye.\nThe color intensity of this dye is directly proportional to the cholesterol concentration and is measured photometrically.\nHuman serum and plasma samples [LDL] determination was done on a Roche/Hitachi Cobas c 701/702 system which automatically calculate the analyte concentration of each sample. Samples containing precipitates are centrifuged before performing the assay."}}, "data": [{"smiles": "O=C(Nc1nc2cccc(-c3ccc(CN4CCS(=O)(=O)CC4)cc3)n2n1)C1CC1", "note": "[Compound 1, cyclopropanecarboxylic acid {5-[4-(1,1-dioxo-thiomorpholin-4-ylmethyl)-phenyl]-[1,2,4]triazolo[1,5-a]pyridin-2yl}-amide]", "values": [{"measurement": "PON1 level, 4 weeks CFB", "setting": "RA patients [1]; 30 mg q.d.", "result": 4.2, "unit": "%"}, {"measurement": "PON1 level, 4 weeks CFB", "setting": "RA patients [1]; 75 mg q.d.", "result": 11.2, "unit": "%"}, {"measurement": "PON1 level, Baseline", "setting": "RA patients [1]; 75 mg q.d.", "result": 69.3, "unit": "ng/mL"}, {"measurement": "PON1 level, week 4", "setting": "RA patients [1]; 75 mg q.d.", "result": 73.7, "unit": "ng/mL"}, {"measurement": "PON1 level, 4 weeks CFB", "setting": "RA patients [1]; 150 mg q.d.", "result": 43.4, "unit": "%"}, {"measurement": "PON1 level, Baseline", "setting": "RA patients [1]; 150 mg q.d.", "result": 52.5, "unit": "ng/mL"}, {"measurement": "PON1 level, week 4", "setting": "RA patients [1]; 150 mg q.d.", "result": 70.6, "unit": "ng/mL"}, {"measurement": "PON1 level, 4 weeks CFB", "setting": "RA patients [1]; 300 mg q.d.", "result": 31.0, "unit": "%"}, {"measurement": "PON1 level, week 4", "setting": "RA patients [1]; 300 mg q.d.", "result": 77.5, "unit": "ng/mL"}, {"measurement": "CRP mean CFB (LOCF)", "setting": "RA patients [2]; week 1", "result": -3.70, "unit": "mg/L"}, {"measurement": "CRP mean CFB (LOCF)", "setting": "RA patients [2]; week 12", "result": -4.43, "unit": "mg/L"}, {"measurement": "[LDL] % Mean % variation vs baseline 10 days", "setting": "[3]; Caucasian", "result": "−1.3", "unit": "%"}, {"measurement": "[LDL] % Mean % variation vs baseline 10 days", "setting": "[3]; Japanese", "result": "−8.9", "unit": "%"}, {"measurement": "[LDL] levels", "setting": "[3]; Caucasian 200 mg q.d. for 10 days, day 17", "result": 2.5, "unit": "mmol/L"}, {"measurement": "[LDL] levels", "setting": "[3]; Caucasian 200 mg q.d., day 0", "result": 2.6, "unit": "mmol/L"}, {"measurement": "[LDL] levels", "setting": "[3]; Caucasian 200 mg q.d., day 5", "result": 2.6, "unit": "mmol/L"}, {"measurement": "[LDL] levels", "setting": "[3]; Caucasian 200 mg q.d., day 10", "result": 2.4, "unit": "mmol/L"}, {"measurement": "[LDL] levels", "setting": "[3]; Japanese 200 mg q.d. for 10 days, day 17", "result": 2.7, "unit": "mmol/L"}, {"measurement": "[LDL] levels", "setting": "[3]; Japanese 200 mg q.d., day 0", "result": 2.7, "unit": "mmol/L"}, {"measurement": "[LDL] levels", "setting": "[3]; Japanese 200 mg q.d., day 5", "result": 2.5, "unit": "mmol/L"}, {"measurement": "[LDL] levels", "setting": "[3]; Japanese 200 mg q.d., day 10", "result": 2.5, "unit": "mmol/L"}]}]}
